ChEMBL document CHEMBL5252619, “Sadopeptins A and B, Sulfoxide- and Piperidone-Containing Cyclic Heptapeptides with Proteasome Inhibitory Activity from a Streptomyces sp” (J Nat Prod, 2023)
Activity calls are given as the source filed them.

Tests used:
Proteasome [1] = assay: Inhibition of human proteasome trypsin-like activity using Boc-LRR-AMC as substrate measured for 30 mins in presence of MG132 by fluorescence based assay; assay type: subcellular; details: dose 10-50 µM
Proteasome [2] = assay: Inhibition of human proteasome chymotrypsin-like activity using suc-LLVY-AMC as fluorogenic substrate measured for 30 mins in presence of MG132 by fluorescence based assay; assay type: subcellular; details: dose 10-50 µM
A549 = assay: Cytotoxicity against human A549 cells assessed as reduction in cell viability up to 200 uM measured for 9 hrs by WST-8 assay; assay type: functional, cell-based
Proteasome [3] = assay: Inhibition of proteasome caspase-like activity in human A549 cells at 25 uM using ZLLE-AMC as fluorogenic substrate preincubated for 15 mins followed by substrate addition and measured after 6 mins by fluorometer analysis; assay type: subcellular
Proteasome [4] = assay: Inhibition of proteasome caspase-like activity in human A549 cells assessed as LC3 lipidation at 25 to 100 uM measured for 12 hrs in presence of MG132; details: dose 25-100 µM
Proteasome [5] = assay: Inhibition of proteasome caspase-like activity in human A549 cells assessed as cleaved PARP level at 25 to 100 uM measured for 12 hrs in presence of MG132; details: dose 25-100 µM
Proteasome [6] = assay: Inhibition of proteasome caspase-like activity in human A549 cells assessed as increase in caspase-3 level at 25 to 100 uM measured for 12 hrs in presence of MG132; assay type: subcellular; details: dose 25-100 µM

CC(C)CC(=O)N[C@@H](CCCNC(N)=O)C(=O)N[C@@H]1C(=O)N[C@@H](CC[S+](C)[O-])C(=O)N[C@H]2CC[C@@H](O)N(C2=O)[C@@H](Cc2ccccc2)C(=O)N(C)[C@@H](Cc2ccc(O)cc2)C(=O)N[C@@H](C(C)C)C(=O)O[C@@H]1C (some centres undefined)
active: inhibition (Proteasome [1]) Dose-Dependent Effect | inhibition (Proteasome [2]) Dose-Dependent Effect | Activity (A549) | inhibition (Proteasome [3]) | inhibition (Proteasome [4]) | inhibition (Proteasome [5]) | inhibition (Proteasome [6])

CCCC(=O)N[C@@H](CCCNC(N)=O)C(=O)N[C@@H]1C(=O)N[C@@H](CC[S+](C)[O-])C(=O)N[C@H]2CC[C@@H](O)N(C2=O)[C@@H](Cc2ccccc2)C(=O)N(C)[C@@H](Cc2ccc(O)cc2)C(=O)N[C@@H](C(C)C)C(=O)O[C@@H]1C (some centres undefined)
active: inhibition (Proteasome [1]) Dose-Dependent Effect | inhibition (Proteasome [2]) Dose-Dependent Effect | Activity (A549) | inhibition (Proteasome [3]) | inhibition (Proteasome [4]) | inhibition (Proteasome [5]) | inhibition (Proteasome [6])
